Laboratory results as given in article PMC9814779, “A triple farnesoid X receptor and peroxisome proliferator-activated receptor α/δ activator reverses hepatic fibrosis in diet-induced NASH in mice” (Communications Chemistry, 2020).

Key:
[1] = system: PPARδ-regulated genes in C2C12 cells; experiment: PPARδ-regulated gene expression in differentiated C2C12 cells (qRT-PCR); assay type: cell-based, murine; conditions: C2C12 myotubes, 1 μM, 8 h
Protocol: HepG2 cells (DSMZ) were grown in DMEM high glucose, supplemented with 10% FCS, 1 mM SP, penicillin (100 U/mL), and streptomycin (100 μg/mL) at 37 °C and 5% CO2 and seeded in 6-well plates (2 × 10^6 per well). After 24 h, medium was changed to Minimal Essential Medium supplemented with 1% charcoal-stripped FCS, penicillin (100 U/mL), streptomycin (100 μg/mL), and 2 mM L-glutamine. After an additional 24 h, cells were incubated with test compound 41 (0.1 µM, 0.3 µM, 1 μM), OCA (1 μM), or elafibranor (1 µM) dissolved in the same medium with 0.1% DMSO or medium with 0.1% DMSO alone as untreated control for 12 h, harvested, washed with cold phosphate-buffered saline (PBS), and then directly used for RNA extraction. C2C12 cells (American Type Culture Collection, ATCC) were grown in DMEM high glucose, supplemented with 10% FCS, 1 mM SP, penicillin (100 U/mL), and streptomycin (100 μg/mL) at 37 °C and 5% CO2 and seeded in 6-well plates (1 × 10^6 per well). […] FXR- and PPAR-regulated gene expression was then studied by quantitative real-time PCR (qRT-PCR) analysis with a StepOnePlus System (Life Technologies, Carlsbad, CA, USA) using PowerSYBRGreen (Life Technologies; 12.5 μL per well). […] Data were analyzed by the comparative ΔΔCT method with glyceraldehyde 3-phosphate dehydrogenase (GAPDH) as reference gene. […]

[2] = molecular target: T1, human PPARδ ligand-binding domain (Gal4 chimera) (Homo sapiens, UniProt Q03181); experiment: Gal4 hybrid reporter gene assay, PPARδ; assay type: cell-based; parameters: Emax: dose or concentration left out as unconfirmed
T1 construct: coding for the hinge region and LBD of the canonical isoform of the respective nuclear receptor; expressed in transfected cells; host or cells: HEK293T
T1 sequence (Q03181 211-439 limits assumed): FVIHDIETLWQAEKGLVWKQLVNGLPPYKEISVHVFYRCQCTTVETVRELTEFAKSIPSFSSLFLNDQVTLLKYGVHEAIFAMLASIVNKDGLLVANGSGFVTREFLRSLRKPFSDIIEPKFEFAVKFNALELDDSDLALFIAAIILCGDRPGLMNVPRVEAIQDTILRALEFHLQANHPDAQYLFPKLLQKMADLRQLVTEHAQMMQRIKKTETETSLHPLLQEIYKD

[3] = molecular target: T2, human PPARγ ligand-binding domain (Gal4 chimera) (Homo sapiens, UniProt P37231); experiment: Gal4 hybrid reporter gene assay, PPARγ; assay type: cell-based; parameters: Emax: dose or concentration left out as unconfirmed
T2 construct: coding for the hinge region and LBD of the canonical isoform of the respective nuclear receptor; expressed in transfected cells; host or cells: HEK293T
T2 sequence (P37231 238-503 limits assumed): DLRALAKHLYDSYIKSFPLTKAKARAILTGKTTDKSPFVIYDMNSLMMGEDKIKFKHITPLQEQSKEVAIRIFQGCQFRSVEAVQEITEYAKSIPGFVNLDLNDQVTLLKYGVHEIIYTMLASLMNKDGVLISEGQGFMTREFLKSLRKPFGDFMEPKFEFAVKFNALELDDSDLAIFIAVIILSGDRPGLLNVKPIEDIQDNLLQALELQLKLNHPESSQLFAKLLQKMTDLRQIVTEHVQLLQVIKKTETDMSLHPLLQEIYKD

[4] = Microsomal stability assay; assay type: in vitro ADME, rat
[5] = 10 μM, rat liver microsomes, 37 °C, 41 n = 3, 7-EC n = 1

CC(C)(C)c1ccc(C(=O)Nc2cccc(CCC(=O)O)c2)c(NC(=O)c2ccc(-c3ccco3)cc2)c1 [compound 41, 3-(3-[4-{tert-Butyl}-2-{4-(2-furyl)}benzamido]phenyl)propanoic acid]
upregulation of PCK and GLUT3 mRNA [1]: comparable efficacy as the selective PPARδ agonist L165,041 | effect on LPL expression ([1]; compared with L165,041): less pronounced | EC50 ([2]; EC50 [μM] PPARδ, HEK293T, mean ± SEM, n = 3): 0.14 ± 0.01 µM | EC50 ([2]; PPARδ EC50, as stated in text): 0.141 µM | Emax ([2]; read-out: max. rel. act. PPARδ): 34% | EC50 [3]: 2400 ± 100 nM | Emax ([3]; read-out: max. rel. act. PPARγ): 16% | percent of remaining compound, 15 min [4, 5]: 95 ± 3% | percent of remaining compound, 30 min [4, 5]: 95 ± 2% | percent of remaining compound, 60 min [4, 5]: 93 ± 2% | stability against microsomal degradation ([4]; in words): very high stability against microsomal degradation
